# Patent publication US9174964B2, “AMPK-activating piperidinyloxy-substituted 2,3-dihydro-1H-indene-1-amine compounds and pharmaceutical compositions including the same” (Rigel Pharmaceuticals, Inc., priority 2007, dated 2015)
# Counter-ions that a name gives are not always drawn.
# Target: AMPK
# Experiment: AMPK activation, enzyme-linked immunosorbent assay
# Format: biochemical
# Conditions: Table 2, AMPK activation, ELISA
# Experimental: Compounds 1-50 of Table 1 were assayed for their ability to activate AMPK using an enzyme-linked immunosorbent assay.
# Compounds 51-60 of Table 1 were assayed for their ability to activate AMPK using an enzyme-linked immunosorbent assay.
# Compounds 61-131 of Table 1 were assayed for their ability to activate AMPK using an enzyme-linked immunosorbent assay.
# Compounds 137-141 and 143-155 of Table 1 were assayed for their ability to activate AMPK using an enzyme-linked immunosorbent assay.
# Compounds 156-160 of Table 1 were assayed for their ability to activate AMPK using an enzyme-linked immunosorbent assay.
row,EC50,Compound
1,< 100 nM,"O=C(NC1CCN(Cc2ccc(N3CCOCC3)cc2)CC1)c1ccc(OC2CCN(c3ccc(C(F)(F)F)cc3)CC2)cn1 [Compound 40, N-(1-(4-morpholinobenzyl)piperidin-4-yl)-5-(1-(4-(trifluoromethyl)phenyl)piperidin-4-yloxy)picolinamide]"
2,> 10000 nM,"O=C(N[C@H]1CCNC1)c1ccc(OC2CCN(c3ccc(C(F)(F)F)cc3)CC2)cn1 [Compound 27, (S)-N-(pyrrolidin-3-yl)-5-(1-(4-(trifluoromethyl)phenyl)piperidin-4-yloxy)picolinamide]"
3,100 to 500 nM,"N#Cc1ccc(N2CCC(Oc3ccc(C(=O)NC4CCN(Cc5cccnc5)CC4)nc3)CC2)cc1 [Compound 6, N-(1-(pyridin-3-ylmethyl)piperidin-4-yl)-5-(1-(4-cyanophenyl)piperidin-4-yloxy)picolinamide]"
4,< 100 nM,"COC(=O)c1ccc(CN2CCC(NC(=O)c3ccc(OC4CCN(c5ccc(C#N)cc5)CC4)cn3)CC2)cc1 [Compound 7, methyl 4-((4-(5-(1-(4-cyanophenyl)piperidin-4-yloxy)picolinamido)piperidin-1-yl)methyl)benzoate]"
5,< 100 nM,"COC(=O)c1ccc(CN2CCC(NC(=O)c3ccc(OC4CCN(c5ccc(C(F)(F)F)cc5)CC4)cn3)CC2)cc1 [Compound 8, methyl 4-((4-(5-(1-(4-(trifluoromethyl)phenyl)piperidin-4-yloxy)picolinamido)piperidin-1-yl)methyl)benzoate]"
6,100 to 500 nM,"O=C(NC1CCN(Cc2ccncc2)CC1)c1cc(OC2CCN(c3ccc(C(F)(F)F)cc3)CC2)ccn1 [Compound 13, N-(1-(pyridin-4-ylmethyl)piperidin-4-yl)-4-(1-(4-(trifluoromethyl)phenyl)piperidin-4-yloxy)picolinamide]"
7,< 100 nM,"O=C(NC1CCN(Cc2ccncc2)CC1)c1ccc(OC2CCN(c3ccc(C(F)(F)F)cc3)CC2)cn1 [Compound 3, N-(1-(pyridin-4-ylmethyl)piperidin-4-yl)-5-(1-(4-(trifluoromethyl)phenyl)piperidin-4-yloxy)picolinamide]"
8,100 to 500 nM,"O=C(NC1CCN(Cc2ccc(F)cc2)CC1)c1cc(OC2CCN(c3ccc(C(F)(F)F)cc3)CC2)ccn1 [Compound 29, N-(1-(4-fluorobenzyl)piperidin-4-yl)-4-(1-(4-(trifluoromethyl)phenyl)piperidin-4-yloxy)picolinamide]"
9,< 100 nM,"CC(C)(C)OC(=O)NCCCNC(=O)c1ccc(OC2CCN(c3ccc(C(F)(F)F)cc3)CC2)cn1 [Compound 49, tert-butyl 3-(5-(1-(4-(trifluoromethyl)phenyl)piperidin-4-yloxy)picolinamido) propylcarbamate]"
10,< 100 nM,"O=C(NC1CCN(Cc2ccc(F)cc2)CC1)c1ccc(OC2CCN(c3ccc(C(F)(F)F)cc3)CC2)nc1 [Compound 11, N-(1-(4-fluorobenzyl)piperidin-4-yl)-6-(1-(4-(trifluoromethyl)phenyl)piperidin-4-yloxy)nicotinamide]"
11,100 to 500 nM,"N#Cc1ccc(CN2CCC(NC(=O)c3ccc(OC4CCN(c5ccc(C(F)(F)F)cc5)CC4)nc3)CC2)cc1 [Compound 35, N-(1-(4-cyanobenzyl)piperidin-4-yl)-6-(1-(4-(trifluoromethyl)phenyl)piperidin-4-yloxy)nicotinamide]"
12,< 100 nM,"O=C(N[C@H]1CCN(Cc2ccncc2)C1)c1ccc(OC2CCN(c3ccc(C(F)(F)F)cc3)CC2)cn1 [Compound 30, (S)-N-(1-(pyridin-4-ylmethyl)pyrrolidin-3-yl)-5-(1-(4-(trifluoromethyl)phenyl)piperidin-4-yloxy)picolinamide]"
13,500 to 1000 nM,"O=C(N[C@@H]1CCN(Cc2ccc(F)cc2)C1)c1ccc(OC2CCN(c3ccc(C(F)(F)F)cc3)CC2)cn1 [Compound 34, (R)-N-(1-(4-fluorobenzyl)pyrrolidin-3-yl)-5-(1-(4-(trifluoromethyl)phenyl)piperidin-4-yloxy)picolinamide]"
14,500 to 1000 nM,"O=C(NC1CCN(Cc2ccc3ccccc3c2)CC1)c1ccc(OC2CCN(c3ccc(C(F)(F)F)cc3)CC2)cn1 [Compound 37, N-(1-(naphthalen-2-ylmethyl)piperidin-4-yl)-5-(1-(4-(trifluoromethyl)phenyl)piperidin-4-yloxy)picolinamide]"

# Same assay, conditions: Table 3, AMPK activation, ELISA
row,EC50,Compound
1,100 to 500 nM,"N#Cc1ccc(CN2CCC(Oc3ccc(S(=O)(=O)NC4CCN(Cc5ccncc5)CC4)cn3)CC2)cc1 [Compound 53, 6-(1-(4-cyanobenzyl)piperidin-4-yloxy)-N-(1-(pyridin-4-ylmethyl)piperidin-4-yl)pyridine-3-sulfonamide]"

# Same assay, conditions: Table 4, AMPK activation, ELISA
row,EC50,Compound
1,100 to 500 nM,"NC(=O)c1ccc(CN2CCC(Oc3ccc4oc(C(=O)NC5CCN(Cc6ccccc6)CC5)cc4c3)CC2)cc1 [Compound 116, N-(1-benzylpiperidin-4-yl)-5-(1-(4-carbamoylbenzyl)piperidin-4-yloxy)benzofuran-2-carboxamide]"
2,< 100 nM,"O=C(NC1CCN(Cc2ccccc2)CC1)c1cc2cc(OC3CCN(c4ccc(C(F)(F)F)cc4)CC3)ccc2o1 [Compound 75, N-(1-benzylpiperidin-4-yl)-5-(1-(4-(trifluoromethyl)phenyl)piperidin-4-yloxy)benzofuran-2-carboxamide]"
3,10000 to 50000 nM,"O=C(NC1CCNCC1)c1cc2ccc(OC3CCN(c4ccc(C(F)(F)F)cc4)CC3)cc2o1 [Compound 84, N-(piperidin-4-yl)-6-(1-(4-(trifluoromethyl)phenyl)piperidin-4-yloxy)benzofuran-2-carboxamide hydrochloride]"
4,100 to 500 nM,"CN(C(=O)c1cc2cc(OC3CCN(c4ccc(C(F)(F)F)cc4)CC3)ccc2o1)C1CCN(Cc2ccncc2)CC1 [Compound 104, N-methyl-N-(1-(pyridin-4-ylmethyl)piperidin-4-yl)-5-(1-(4-(trifluoromethyl)phenyl)piperidin-4-yloxy)benzofuran-2-carboxamide]"
5,< 100 nM,"Cc1c(C(=O)NC2CCN(Cc3cccc(C#N)c3)CC2)oc2cc(OC3CCN(c4ccc(C(F)(F)F)cc4)CC3)ccc12 [Compound 66, N-(1-(3-cyanobenzyl)piperidin-4-yl)-3-methyl-6-(1-(4-(trifluoromethyl)phenyl)piperidin-4-yloxy)benzofuran-2-carboxamide]"
6,100 to 500 nM,"CC(C)(C)OC(=O)N1CCC(NC(=O)c2cc3cc(OC4CCN(Cc5ccc(C#N)cc5)CC4)ccc3o2)CC1 [Compound 113, tert-butyl 4-(5-(1-(4-cyanobenzyl)piperidin-4-yloxy)benzofuran-2-carboxamido)piperidine-1-carboxylate]"
7,10000 to 50000 nM,"Cc1c(C(=O)NC2CCNCC2)oc2cc(OC3CCN(c4ccc(C(F)(F)F)cc4)CC3)ccc12 [Compound 62, 3-methyl-N-(piperidin-4-yl)-6-(1-(4-(trifluoromethyl)phenyl)piperidin-4-yloxy)benzofuran-2-carboxamide]"
8,< 100 nM,"CN(C(=O)c1cc2cc(OC3CCN(c4ccc(C(F)(F)F)cc4)CC3)ccc2o1)C1CCN(Cc2cccc(C#N)c2)CC1 [Compound 110, N-(1-(3-cyanobenzyl)piperidin-4-yl)-N-methyl-5-(1-(4-(trifluoromethyl)phenyl)piperidin-4-yloxy)benzofuran-2-carboxamide]"
9,100 to 500 nM,"CN(C(=O)c1cc2cc(OC3CCN(c4ccc(C(F)(F)F)cc4)CC3)ccc2o1)C1CCN(Cc2ccccc2C#N)CC1 [Compound 111, N-(1-(2-cyanobenzyl)piperidin-4-yl)-N-methyl-5-(1-(4-(trifluoromethyl)phenyl)piperidin-4-yloxy)benzofuran-2-carboxamide]"
10,< 100 nM,"N#Cc1ccc(CN2CCC(NC(=O)c3cc4ccc(OC5CCN(c6ccc(OC(F)(F)F)cc6)CC5)cc4o3)CC2)cc1 [Compound 89, N-(1-(4-cyanobenzyl)piperidin-4-yl)-6-(1-(4-(trifluoromethoxy)phenyl)piperidin-4-yloxy)benzofuran-2-carboxamide]"
11,1000 to 10000 nM,"O=C(N[C@H]1CCN(Cc2ccncc2)C1)c1cc2cc(OC3CCN(Cc4ccc(Cl)cc4)CC3)ccc2o1 [Compound 129, (S)-5-(1-(4-chlorobenzyl)piperidin-4-yloxy)-N-(1-(pyridin-4-ylmethyl)pyrrolidin-3-yl)benzofuran-2-carboxamide]"

# Same assay, conditions: Table 4, AMPK activation, ELISA; formate salt
row,EC50,Compound
1,< 100 nM,"O=C(NC1CCN(Cc2ccncc2)CC1)c1cc2cc(OC3CCN(c4ccc(C(F)(F)F)cc4)CC3)ccc2o1 [Compound 105, N-(1-(pyridin-4-ylmethyl)piperidin-4-yl)-5-(1-(4-(trifluoromethyl)phenyl)piperidin-4-yloxy)benzofuran-2-carboxamide, formate salt]"

# Same assay, conditions: Table 5, AMPK activation, ELISA
row,EC50,Compound
1,< 100 nM,"O=C(NC1CCN(Cc2ccncc2)CC1)c1sc2cc(OC3CCN(c4ccc(C(F)(F)F)cc4)CC3)ccc2c1Cl [Compound 151, 3-chloro-N-(1-(pyridin-4-ylmethyl)piperidin-4-yl)-6-(1-(4-(trifluoromethyl)phenyl)piperidin-4-yloxy)benzo[b]thiophene-2-carboxamide]"
2,> 50000 nM,"O=C(NC1CCNCC1)c1sc2cc(OC3CCN(c4ccc(C(F)(F)F)cc4)CC3)ccc2c1Cl [Compound 148, 3-chloro-N-(piperidin-4-yl)-6-(1-(4-(trifluoromethyl)phenyl)piperidin-4-yloxy)benzo[b]thiophene-2-carboxamide]"
3,< 100 nM,"N#Cc1ccc(CN2CCC(NC(=O)c3cc4ccc(OC5CCN(c6ccc(C(F)(F)F)cc6)CC5)cc4s3)CC2)cc1 [Compound 144, N-(1-(4-cyanobenzyl)piperidin-4-yl)-6-(1-(4-(trifluoromethyl)phenyl)piperidin-4-yloxy)benzo[b]thiophene-2-carboxamide]"
4,< 100 nM,"O=C(NC1CCN(C(=O)c2ccncc2)CC1)c1sc2cc(OC3CCN(c4ccc(C(F)(F)F)cc4)CC3)ccc2c1Cl [Compound 155, 3-chloro-N-(1-isonicotinoylpiperidin-4-yl)-6-(1-(4-(trifluoromethyl)phenyl)piperidin-4-yloxy)benzo[b]thiophene-2-carboxamide]"
